Test results: US10150804B2, “Compositions and methods for imaging cancer” (BRITISH COLUMBIA CANCER AGENCY BRANCH, priority 2014, dated 2018)
Read-outs that look alike come from different tables or passages of the source. Blank lines part the entries; values can stand above or below the molecule they belong to.

Experiments:
sstr1 = molecular target: T1, sstr1 (Homo sapiens, UniProt P30872); assay: standard filtration competitive binding assay, sstr1 membranes; conditions: 0.2 nM 125I standard
T1 construct: purchased PerkinElmer; host or cells: Chinese hamster ovary K1 cells (transfected)
Description: After successful synthesis, the activity of ^19F-AMBF3-TATE was examined in vitro. Membranes from Chinese hamster ovary K1 cells transfected with sstr1, sstr2, sstr3, sstr5, and [^125I]-Tyr-somatostatin-14 were obtained from PerkinElmer. […] Briefly, membranes ([…]) were incubated with the ^125I-labelled standard at a concentration of 0.05 nM for sstr2 or 0.2 nM for other subtypes. […] After incubation (37° C., 1 h), the wells were aspirated and washed 8 times with 50 mM ice-cold buffer (Tris-HCl, pH 7.4) over grade GF/B filters. The filters were removed and counted by a γ counter (Cobra II; Packard). Data were fitted to a 1-site competition model (GraphPad Prism 6.1 software) to calculate Ki.

[1] = 19F-NMR kinetic analysis of solvolysis/defluoridation of AMBF3; assay type: physicochemical
Description: Data are scaled 1000,000 min.

[2] = test system: AR42J tumour-bearing mice; conditions: excess competitor 69/71Ga-DOTATATE
Description: After labelling, imaging was undertaken. […] Rat pancreatic adenocarcinoma cells (10^7 AR42J cells) were freshly expanded in a mixture of phosphate-buffered saline and Matrigel (Corning) and inoculated subcutaneously in female immunocompromised mice (NOD SCID [non-obese diabetic severe combined immunodeficient] IL2r-γ-null, bred in house). The tumours were grown for 2 wk until they reached 5-7 mm in diameter. […] Sixty minutes after injection, the mice were anesthetized with isoflurane and euthanized by carbon dioxide. The organs were harvested, rinsed with saline, blotted dry, and collected in previously weighed tubes. The tubes containing the organs were counted in a Cobra-II γ counter. The tissue weight and associated count per minute were used to calculate the percentage injected dose per gram of tissue (% ID/g). Images were acquired using a multimodality PET/CT system (Inveon; Siemens).

T1 sequence (P30872 whole entry): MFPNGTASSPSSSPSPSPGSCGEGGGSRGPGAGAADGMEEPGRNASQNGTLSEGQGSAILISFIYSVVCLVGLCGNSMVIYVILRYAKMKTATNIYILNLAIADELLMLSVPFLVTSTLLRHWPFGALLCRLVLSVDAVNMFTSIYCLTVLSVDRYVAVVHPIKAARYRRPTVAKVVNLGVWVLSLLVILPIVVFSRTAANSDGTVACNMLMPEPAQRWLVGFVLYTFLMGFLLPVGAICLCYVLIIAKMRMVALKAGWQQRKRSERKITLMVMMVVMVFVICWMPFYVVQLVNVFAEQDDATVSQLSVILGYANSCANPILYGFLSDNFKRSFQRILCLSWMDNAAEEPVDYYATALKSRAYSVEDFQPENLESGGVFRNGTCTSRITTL

Molecule: C[C@@H](O)[C@H](NC(=O)[C@@H]1CSSC[C@H](NC(=O)[C@@H](Cc2ccccc2)NC(=O)Cn2cc(C[N+](C)(C)C[B-](F)(F)F)nn2)C(=O)N[C@@H](Cc2ccc(O)cc2)C(=O)N[C@H](Cc2c[nH]c3ccccc23)C(=O)N[C@@H](CCCCN)C(=O)N[C@@H]([C@@H](C)O)C(=O)N1)C(=O)O [AMBF3-TATE]
displacement of binding to sstr1 (sstr1): No significant displacement

half-life ([1]; 19F NMR, read-out: solvolysis t1/2 (converted)): 312 h
half-life ([1]; 19F-NMR, first-order fit (FIG. 10), read-out: half-life of defluoridation): 0.325 h
Molecule: C#CC[N+](C)(C)C[B-](F)(F)F [alkynyl-AMBF3, N-propargyl-N,N-dimethyl-ammoniomethyltrifluoroborate]

Molecule: ^18F-AMBF3-TATE
blocking efficiency (tumour uptake) [2]: 97%
